Read-outs that look alike come from different tables or passages of the source.

For orientation: stoichiometry N means the number of molecules, sites or subunits per partner or assembly.

The target in data set [1] is T1, R. jostii ADP-Glc PPase (RjoGlgC) (Rhodococcus jostii, UniProt Q0S3Y4).
T1 construct: gene glgC; full length, N-terminal His-tag (pET28c), E. coli BL21(DE3) with GroEL/GroES; start GTG changed to ATG, primer encodes MRSQPHV; homotetramer 190 kDa
T1 sequence (Q0S3Y4 1-404): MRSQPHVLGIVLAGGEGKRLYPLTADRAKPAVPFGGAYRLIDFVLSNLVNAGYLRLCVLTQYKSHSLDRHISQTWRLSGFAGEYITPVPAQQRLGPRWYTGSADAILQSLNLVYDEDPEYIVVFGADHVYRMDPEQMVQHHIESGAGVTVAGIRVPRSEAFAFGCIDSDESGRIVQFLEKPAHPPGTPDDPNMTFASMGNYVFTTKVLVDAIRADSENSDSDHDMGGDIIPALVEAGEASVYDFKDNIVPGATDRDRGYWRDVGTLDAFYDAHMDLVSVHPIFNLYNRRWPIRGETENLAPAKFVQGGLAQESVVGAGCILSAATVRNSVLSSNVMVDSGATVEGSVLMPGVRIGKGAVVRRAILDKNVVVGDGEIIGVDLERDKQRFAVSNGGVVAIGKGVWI
Nature of the data set: colorimetric Pi release (Malachite Green) assay of ADP-Glc synthesis, Hill fit. It counts as biochemical. The source says:
colorimetric Pi release (Malachite Green) assay of ADP-Glc synthesis, Hill fit on R. jostii ADP-Glc PPase (RjoGlgC)

Data set [2] deals with T1, R. jostii ADP-Glc PPase (RjoGlgC). The data set is described as above. It counts as biochemical. To be noted: no activator; co-substrate ATP; 5 mM MgCl2, pH 8.0, 37°C; read-out: S0.5.
Data set [3] concerns the molecule itself. Nature of the data set: SEC; Superdex 200 size exclusion chromatography of the purified enzyme; data not shown.
Substrate in data set [4]: Nc1ncnc2c1ncn2[C@@H]1O[C@H](COP(=O)(O)OP(=O)(O)OP(=O)(O)O)[C@@H](O)[C@H]1O
Nature of the data set: colorimetric Pi release (Malachite Green) assay of ADP-Glc synthesis, Hill fit. It counts as biochemical, Rhodococcus jostii. To be noted: no activator, co-substrate Glc-1P saturating, 5 mM MgCl2, pH 8.0, 37°C.

Substrate in data set [5]: O=P(O)(O)O[C@H]1O[C@H](CO)[C@@H](O)[C@H](O)[C@H]1O
Described as above. It counts as biochemical, Rhodococcus jostii. To be noted: no activator, co-substrate ATP saturating, 5 mM MgCl2, pH 8.0, 37°C.

Where [6] appears, read: allosteric activator; 5 mM MgCl2, ATP and Glc-1P, pH 8.0, 37°C; read-out: A0.5.

Turning to `O=P(O)(O)OC[C@H]1OC(O)(CO)[C@@H](O)[C@@H]1O` (stereo partly drawn) [Fru-6P], the EC50 in data set [1] (setting [6]) was found to be 2200 ± 100 µM. Regarding `O=P(O)(O)OC[C@H]1OC(O)[C@H](O)[C@@H](O)[C@@H]1O` (stereo partly drawn) [Glc-6P], the EC50 in data set [1] (read-out: A0.5; allosteric activator; 5 mM MgCl2, ATP and Glc-1P, pH 8.0, 37°C) stood at 88 ± 5 µM.

`N[C@H]1[C@@H](OP(=O)(O)O)O[C@H](CO)[C@@H](O)[C@@H]1O` [GlcN-1P]: in data set [2], the Km is above 6 mM.

`O=P(O)(O)OC[C@H]1OC(O)[C@@H](O)[C@@H](O)[C@@H]1O` (stereo partly drawn) [Man-6P]: the EC50 in data set [1] (setting [6]) was found to be 56 ± 5 µM.

For `C=C(OP(=O)(O)O)C(=O)O` [PEP], the EC50 in data set [1] (read-out: A0.5) was determined as 300 ± 200 µM.

As for `O=P(O)(O)OC[C@H]1OC(O)[C@H](O)[C@@H]1O` (stereo partly drawn) [Rib-5P], the EC50 in data set [1] (setting [6]) turned out to be 4000 ± 500 µM.

B1: ADP-glucose pyrophosphorylase from Rhodococcus jostii RHA1 (enzyme, UniProt Q0S3Y4 1-404, looked up)
chain: MRSQPHVLGIVLAGGEGKRLYPLTADRAKPAVPFGGAYRLIDFVLSNLVNAGYLRLCVLTQYKSHSLDRHISQTWRLSGFAGEYITPVPAQQRLGPRWYTGSADAILQSLNLVYDEDPEYIVVFGADHVYRMDPEQMVQHHIESGAGVTVAGIRVPRSEAFAFGCIDSDESGRIVQFLEKPAHPPGTPDDPNMTFASMGNYVFTTKVLVDAIRADSENSDSDHDMGGDIIPALVEAGEASVYDFKDNIVPGATDRDRGYWRDVGTLDAFYDAHMDLVSVHPIFNLYNRRWPIRGETENLAPAKFVQGGLAQESVVGAGCILSAATVRNSVLSSNVMVDSGATVEGSVLMPGVRIGKGAVVRRAILDKNVVVGDGEIIGVDLERDKQRFAVSNGGVVAIGKGVWI
notes: ADP-glucose pyrophosphorylase (EC 2.7.7.27), product of glgC of Rhodococcus jostii RHA1; gene of 1,215 bp, theoretical molecular mass 43.85 kDa; amplified with primers from the initiation codon (changed from GTG to ATG) to downstream of the stop codon; Homotetramer by size exclusion chromatography; also called R. jostii ADP-Glc PPase; ADP-Glc PPase; source: E. coli BL21 (DE3) harboring pGro7 …
As for B1, the “stoichiometry N” value in data set [3] was determined as 4. The values for the K0.5 in data set [4] and in data set [5] were 1.2 ± 0.1 mM and 1.8 ± 0.2 mM, respectively.

The values are drawn from article PMC4890535, “On the Kinetic and Allosteric Regulatory Properties of the ADP-Glucose Pyrophosphorylase from Rhodococcus jostii: An Approach to Evaluate Glycogen Metabolism in Oleaginous Bacteria” (Frontiers in Microbiology, 2016).
